Legend:
[1] = biological target: T1, GST-hLGK1 (human liver type GK) (Homo sapiens, UniProt P35557); test: Determination of GK activity value (Mant-ATP conversion, capillary electrophoresis); format: biochemical; conditions: concentration necessary for activating 50% of the maximum GK activity value, 37° C., 60 min, D-glucose added
T1 construct: with a BamHI site added to immediately before the initiation codon; made in house; host or cells: Escherichia coli BL21
T1 sequence (P35557 1-464 isoform P35557-3): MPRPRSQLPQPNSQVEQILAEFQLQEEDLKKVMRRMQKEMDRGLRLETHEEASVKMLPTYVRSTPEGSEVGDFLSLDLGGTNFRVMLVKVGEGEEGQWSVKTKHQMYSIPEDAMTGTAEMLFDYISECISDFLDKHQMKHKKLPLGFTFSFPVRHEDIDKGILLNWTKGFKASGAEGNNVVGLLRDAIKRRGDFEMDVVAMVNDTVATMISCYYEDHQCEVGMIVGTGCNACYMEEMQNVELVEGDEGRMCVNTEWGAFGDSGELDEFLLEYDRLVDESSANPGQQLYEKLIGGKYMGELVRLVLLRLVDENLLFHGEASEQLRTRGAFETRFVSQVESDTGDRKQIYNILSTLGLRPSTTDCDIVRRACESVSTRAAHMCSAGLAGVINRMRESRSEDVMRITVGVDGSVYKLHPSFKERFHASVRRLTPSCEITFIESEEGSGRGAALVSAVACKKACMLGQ
Procedure: A solution (5 μL) of test compound in 50% dimethyl sulfoxide was added to each well of 384 well black plate (Nalge Nunc International K.K.). Then, a solution (35 μL) obtained by diluting GST-hLGK1 obtained in Reference Example 2A with measurement buffer (containing 50 mM HEPES (pH 7.4), 200 mM KCl, 5 mM MgCl2, 2.5 mM DTT and 50 μM 2′-(or -3′)-O—(N-methylanthraniloyl)adenosine 5′-triphosphate (Mant-ATP) (Jena Bioscience GmbH)) to 6 μg/mL was added to each well.
Each well was stood at 37° C. for 10 min, and 25 mM D-glucose solution (10 μL) was added to start the reaction.
Each well after the reaction was stood at 37° C. for 60 min, and the reaction was quenched by adding 25 μL of a quenching solution (containing 200 mM HEPES (pH 7.4), 20 mM MgCl2, 200 mM EDTA, 0.03% Triton-X 100, 0.3% Coating 3 reagent (Caliper Life Sciences, Inc.)).
Mant-ATP (substrate) and Mant-ADP (reaction resultant product) were separated from each well after the reaction by a microchip type capillary electrophoresis apparatus 250 HTS (Caliper Life Sciences, Inc.). The reaction rate [(reaction resultant product peak height)/(reaction resultant product peak height+substrate peak height)×100(%)] was calculated from the ratio of the substrate peak height and reaction resultant product peak height obtained by fluorescence detection (excitation wavelength 355 nm, measurement wavelength 460 nm) and used as the index of GK activity.
As a control group, the reaction rate was calculated in the same manner as above except that “solution in 50% dimethyl sulfoxide” was used instead of “solution of test compound in 50% dimethyl sulfoxide”.
The percentage obtained by dividing the reaction rate of the well added with the test compound (test compound addition group) by the reaction rate of the well added with 50% solution in dimethyl sulfoxide alone (control group) was taken as the GK activity value of the test compound, and the concentration of the test compound necessary for activating 50% of the maximum value of the activity value is shown as EC50 value.

| EC50 [1] [nM] | melting point [°C] | SMILES |
| --- | --- | --- |
| 29 | 197 to 198 | CN(c1ccc(F)c2cc(-c3nccs3)[nH]c12)S(=O)(=O)c1cccs1 [Example 182, N-[4-fluoro-2-(1,3-thiazol-2-yl)-1H-indol-7-yl]-N-methylthiophene-2-sulfonamide] |
|  | 152 to 153 | CCN(c1ccc(C)c2cc(-c3ncc(C(C)O)s3)[nH]c12)S(=O)(=O)c1cccs1 (stereo not shown) [Example 249, N-Ethyl-N-{2-[5-(1-hydroxyethyl)-1,3-thiazol-2-yl]-4-methyl-1H-indol-7-yl}thiophene-2-sulfonamide] |
|  | 189 to 190 | CCN(c1cc(C)c(C)c2cc(-c3ncc(CO)s3)[nH]c12)S(=O)(=O)c1cccs1 [Example 254, N-Ethyl-N-{2-[5-(hydroxymethyl)-1,3-thiazol-2-yl]-4,5-dimethyl-1H-indol-7-yl}thiophene-2-sulfonamide] |
